The target in experiment [1] is Serine/threonine-protein kinase mTOR (Homo sapiens, UniProt P42345). As to the kind of experiment: Inhibition of human mTOR measured after 30 mins in presence of ATP by Lanthascreen TR-FRET assay. In general terms: TR-FRET usually uses a lanthanide donor and a delayed reading to cut background.
The target of experiment [2] is Phosphatidylinositol 4,5-bisphosphate 3-kinase catalytic subunit alpha isoform (Homo sapiens, UniProt P42336). As to the kind of experiment: Inhibition of PI3K alpha (unknown origin).

Experimental findings from ChEMBL document CHEMBL4359925, “Rational discovery of a highly novel and selective mTOR inhibitor” (Bioorg Med Chem Lett, 2019) are described below.

Phosphatidylinositol 4,5-bisphosphate 3-kinase catalytic subunit alpha isoform, sequence (P42336 whole entry, canonical isoform): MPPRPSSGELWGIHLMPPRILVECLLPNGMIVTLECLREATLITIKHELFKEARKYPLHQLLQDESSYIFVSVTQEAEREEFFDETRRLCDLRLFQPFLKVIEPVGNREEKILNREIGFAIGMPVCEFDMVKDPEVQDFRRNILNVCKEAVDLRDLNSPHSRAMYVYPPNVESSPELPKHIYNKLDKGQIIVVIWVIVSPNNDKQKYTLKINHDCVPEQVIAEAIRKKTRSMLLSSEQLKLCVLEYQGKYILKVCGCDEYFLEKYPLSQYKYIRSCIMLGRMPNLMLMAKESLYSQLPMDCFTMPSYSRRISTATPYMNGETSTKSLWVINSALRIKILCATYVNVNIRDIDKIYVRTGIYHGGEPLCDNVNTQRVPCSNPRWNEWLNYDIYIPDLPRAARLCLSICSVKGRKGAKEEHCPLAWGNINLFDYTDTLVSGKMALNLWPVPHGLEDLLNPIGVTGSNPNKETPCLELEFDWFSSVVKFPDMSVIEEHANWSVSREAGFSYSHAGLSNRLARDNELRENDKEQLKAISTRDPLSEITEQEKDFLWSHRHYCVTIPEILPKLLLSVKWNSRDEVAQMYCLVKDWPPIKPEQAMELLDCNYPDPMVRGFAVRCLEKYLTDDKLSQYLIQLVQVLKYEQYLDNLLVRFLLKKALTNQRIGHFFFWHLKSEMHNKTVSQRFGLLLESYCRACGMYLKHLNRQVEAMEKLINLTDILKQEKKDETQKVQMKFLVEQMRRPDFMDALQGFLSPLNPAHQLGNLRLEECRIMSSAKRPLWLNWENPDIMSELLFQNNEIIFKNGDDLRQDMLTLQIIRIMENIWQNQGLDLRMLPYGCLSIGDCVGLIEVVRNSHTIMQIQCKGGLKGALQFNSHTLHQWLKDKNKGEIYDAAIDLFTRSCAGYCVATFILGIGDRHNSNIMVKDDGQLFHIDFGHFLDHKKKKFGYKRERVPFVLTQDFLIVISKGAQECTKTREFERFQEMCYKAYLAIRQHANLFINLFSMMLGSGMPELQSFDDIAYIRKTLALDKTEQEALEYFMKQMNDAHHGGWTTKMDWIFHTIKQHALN

What is called IC50 is the concentration that inhibits the measured activity by half. Regarding `CNC(=O)Nc1ccc(-c2ncc3c(n2)N2CCOCC2C(=O)N3)cc1` (configuration not stated), the IC50 in experiment [1] was 316 nM; in experiment [2], 31.6 nM.
